For test [1], the target named is HAdV-37 fiber knob (Human adenovirus D37, UniProt Q64823). Kind of test: Surface plasmon resonance (SPR), immobilized HAdV-37 fiber knobs. The format is binding, human adenovirus HAdV-37. The following applies: for binding mode with HAdV-37 fiber knob: SPR. As for the experimental part: Finally, ME0385, ME0386 and ME0322 were investigated in surface plasmon resonance (SPR) experiments and their respective binding affinities (Kds) for immobilized HAdV-37 fiber knobs were determined (see below for further details). […] It is also worth noting the influence of the HAdV-37 fiber knob construct on the Kd values.
The kinetic measurements were performed using a surface plasmon resonance BIAcore T100 instrument. HAdV-37 knob proteins were covalently coupled to a CMS sensorchip using the amine coupling kit (GE Healthcare), to a concentration of 14-15 ng/mm^2 (˜15000RU). Binding of the trivalent sialic acid conjugates ME0322, ME0385 and ME0386 to the immobilized knob was performed in 10 mM HEPES, 0.15 M NaCl and 0.05% P20 pH 7.4 (1×HBS-EP+, GE Healthcare). The concentrations of trivalent sialic acid used were 400, 200, 100, 50 (twice), 25, 12.5 (twice), 6.25, 3.125, 1.56 and 0.78 μM. The binding affinities (Kds) were calculated using Biacore T100 evaluation software.

For test [2], the system named is HAdV-37 virions (attachment to HCE cells). The note with it: reported in the art (background), cited from earlier work.
The test system of test [3] is HAdV-37 virions (infection of HCE cells). The following applies: cited from earlier work.
Test [4] has as its system HAdV-37 virions (attachment to HCE cells). The test can be described thus: Cell-binding assay: attachment of 35S-labeled HAdV-37 virions to HCE cells. The format is cell-based. The note with it: read-out: IC50, preventing attachment of HAdV-37 virions to HCE cells. As to the method:
In order to investigate the efficiency of the newly synthesized compounds (ME0385, ME0386, ME0407, ME0408, ME0461, and ME0462) to prevent the attachment of HAdV-37 virions to HCE cells, cell-binding assays based on ^35S-labeled virions were performed. Based on previous studies ME0322, sialic acid and GD1a glycan were used as reference compounds (Nilsson et al N. Nat. Med. 2011, 17, 105 and Spjut et al Angew. Chem. Int. Ed. 2011, 50, 6519). The assays were carried out (see below for further details) essentially as previously described (Arnberg et al J. Virol. 2000, 74, 42 and Arnberg et al J. Virol. 2000, 74, 7691).
In brief, ^35S-labeled HAdV-37 virions were pre-incubated with or without the trivalent sialic acid derivatives, GD1a glycan and sialic acid at various concentrations. The mixtures were incubated with HCE cells and unbound virions were then washed away. Finally, the cell-associated radioactivity was counted by using a scintillation counter.
S-labeled HAdV-37 virions (5×10^8/well) were pre-incubated in binding buffer (50 μL; BB: Dulbecco's modified eagle's medium containing 1% BSA (Roche AB, Stockholm, Sweden) and HEPES (20 mM, EuroClone, Milan, Italy), pH 7.5) with or without the trivalent sialic acid derivatives, GD1a glycan or sialic acid at various concentrations (cf. FIG. 1a) in a 96-well microplate at +4° C. for 1 h. These mixtures were then added to HCE cells prepelleted (1×10^5/well) in a 96-well microplate. After re-suspension, the mixtures were incubated at +4° C. for 1 h. Finally, unbound virions were washed away with BB and the cell-associated radioactivity was counted by using a Wallac 1409 scintillation counter.

Test [5] deals with HAdV-37 virions (infection of HCE cells). The test can be described thus: Infection assay: infection of HCE cells by HAdV-37 virions (immunofluorescence). The format is cell-based. The note with it: for IC50: Human adenovirus sp., HCE, 44 h of infection, immunofluorescence, read-out: IC50, preventing infection of HCE cells by HAdV-37 virions; for prevention of infection of HCE cells by HAdV-37 virions compared with ME0322: in words. As for the experimental part:
In order to confirm the results from the cell-binding assays and to further evaluate our set of compounds, infection experiments were performed (FIGS. 1b, 3a and 3b). The assays were carried out (see below for further details) essentially as previously described ((Arnberg et al. J. Virol. 2000, 74, 42 and Arnberg et al. J. Virol. 2000, 74, 7691)).
In brief, unlabeled virions were pre-incubated with or without the trivalent sialic acid derivatives, GD1a glycan or sialic acid at various concentrations. These mixtures were then added to HCE cells and incubated at +4° C. Unbound virions were washed away, the resulting mixtures were incubated at +37° C. and a synchronized infection—all virions enter the cells simultaneously—was then obtained. After 44 h of infection, the cells were rinsed, fixed, incubated with rabbit polyclonal anti-HAdV-37 antibodies prior to being washed and stained. Finally, the cells were washed and examined by immunofluorescence microscopy.
7×10^7 non-labeled virions/well in 48-well plates were pre-incubated in serum free growth media (2004), with or without the trivalent sialic acid derivatives, GD1a glycan or sialic acid at various concentrations (cf. FIG. 2B) at +4° C. After 1 h, the mixtures were transferred to new 48-well plates containing 1×10^5 adherent HCE cells/well and incubated at +4° C. After 1 h, unbound virions were washed away with serum free growth media and the resulting mixtures were incubated with growth media containing 1% fetal bovine serum (FBS) at +37° C. After 44 h of infection, the cells were rinsed in PBS, fixed with cold (−20° C.) 99% methanol for 10 min and incubated with rabbit polyclonal anti-HAdV-37 antibodies diluted 1:200 in PBS (pH 7.4) at room temperature. After 1 h, the cells were washed in PBS and stained with FITC-labeled swine anti-rabbit IgG antibodies (Dako-cytomation, Glostrup, Denmark) diluted 1:100 in PBS for 1 h at room temperature. Finally, the cells were washed in PBS and examined in an immunofluorescence microscope (Axiovert 25, Carl Zeiss, Germany; 10× magnification).

Where [6] appears, read: 35S-labeled virions pre-incubated with compound, +4° C., HCE cells.

By Kd is commonly meant a measure of binding affinity in units of concentration.

Like-named read-outs stand apart in the source and are kept apart here.

With `CC(=O)NC1C(O)CC(OCCCCCNc2c(NCCN(CCNc3c(NCCCCCOC4(C(=O)O)CC(O)C(NC(C)=O)C(C(O)C(O)CO)O4)c(=O)c3=O)CCNc3c(NCCCCCOC4(C(=O)O)CC(O)C(NC(C)=O)C(C(O)C(O)CO)O4)c(=O)c3=O)c(=O)c2=O)(C(=O)O)OC1C(O)C(O)CO` (centres unmarked) [ME0322], in test [1], the “binding mode with HAdV-37 fiber knob” value is reported as “one-to-one binding mode”. Moreover, in test [1] (read-out: binding affinity (Kd) for immobilized HAdV-37 fiber knobs, BIAcore T100, HBS-EP+ pH 7.4), the Kd came to 126 µM. Further, the “potency compared with natural sialic acid monosaccharide” value in test [2] (assay not specified) is recorded as “four orders of magnitude more potent than the natural sialic acid monosaccharide”. Further, in test [2], the “preventing binding of the virus, compared with 17-valent sialic acid-HSA conjugate” value is “as effective as 17-valent sialic acid-HSA conjugate”. The IC50 in test [3] (infection of HCE cells by HAdV-37, earlier estimate, read-out: half maximal inhibitory concentration, previously estimated) is 0.38 µM. In addition, in test [3] (reported in the art (background)), the “inhibiting infection of HCE cells by HAdV-37, compared with HSA-conjugate” value is recorded as “far more potent than the HSA-conjugate”.
As to `CC(=O)NC1C(O)CC(OCCn2cc(CN(Cc3cn(CCOC4(C(=O)O)CC(O)C(NC(C)=O)C(C(O)C(O)CO)O4)nn3)Cc3cn(CCOC4(C(=O)O)CC(O)C(NC(C)=O)C(C(O)C(O)CO)O4)nn3)nn2)(C(=O)O)OC1C(O)C(O)CO` [ME0385, Tris ((1-(2-O-(5-N-acetamido-3,5-dideoxy-D-glycero-α-D-galacto-2-nonylopyranosylonic acid))-2-oxoethyl-1H-1,2,3-triazol-4-yl)methyl)amine], the IC50 in test [4] (Human adenovirus sp., HCE) is 0.107 µM; in test [5], 0.166 µM. The same compound displayed a Kd in test [1] of 76 µM. Moreover, in test [1], the “binding mode with HAdV-37 fiber knob” value is given as “one-to-one binding mode”.
Turning to `CC(=O)N[C@@H]1C(O)C[C@](OCCCn2cc(CN(Cc3cn(CCCO[C@@]4(C(=O)O)CC(O)[C@H](NC(C)=O)C(C(O)C(O)CO)O4)nn3)Cc3cn(CCCO[C@]4(C(=O)O)CC(O)[C@@H](NC(C)=O)C(C(O)C(O)CO)O4)nn3)nn2)(C(=O)O)OC1C(O)C(O)CO` (stereo partly drawn) [ME0386, Tris ((1-(2-O-(5-N-acetamido-3,5-dideoxy-D-glycero-α-D-galacto-2-nonylopyranosylonic acid))-3-oxopropyl-1H-1,2,3-triazol-4-yl)methyl)amine], the IC50 in test [4] (Human adenovirus sp., HCE) is 0.04 µM. For the same compound, the IC50 in test [5] came to 0.118 µM. In test [1], the dissociation constant Kd turned out to be 69 µM and the “binding mode with HAdV-37 fiber knob” value was “one-to-one binding mode”.
As for `CCC(=O)N[C@H]1[C@H]([C@H](O)[C@H](O)CO)O[C@@](OCCCn2cc(CN(Cc3cn(CCCO[C@]4(C(=O)O)C[C@H](O)[C@@H](NC(=O)CC)[C@H]([C@H](O)[C@H](O)CO)O4)nn3)Cc3cn(CCCO[C@]4(C(=O)O)C[C@H](O)[C@@H](NC(=O)CC)[C@H]([C@H](O)[C@H](O)CO)O4)nn3)nn2)(C(=O)O)C[C@@H]1O` [ME0407], the IC50 in test [4] (setting [6]) stood at 23.4 µM.
Regarding `CC(=O)N[C@@H]1C(O)C[C@](OCc2cn(CCN(CCn3cc(CO[C@]4(C(=O)O)CC(O)[C@@H](NC(C)=O)C(C(O)C(O)CO)O4)nn3)CCn3cc(CO[C@]4(C(=O)O)CC(O)[C@@H](NC(C)=O)C(CO)(C(O)CO)O4)nn3)nn2)(C(=O)O)OC1C(O)C(O)CO` (stereo partly drawn) [ME0462, Tris ((4-(2-O-(5-N-acetamido-3,5-dideoxy-D-glycero-α-D-galacto-2-nonulopyranosylonic acid))-2-oxomethyl-1H-1,2,3-triazol-1-yl)ethyl)amine], in test [4] (Human adenovirus sp., HCE), the IC50 is 0.0014 µM. Besides, in test [5], the IC50 stood at 0.0021 µM and the “prevention of infection of HCE cells by HAdV-37 virions compared with ME0322” value is “more efficiently than ME0322”. Also, in test [1], the Kd was determined as 9.5 µM.
For `CC(=O)N[C@H]1[C@H]([C@H](O)[C@H](O)CO)OC(O)(C(=O)O)C[C@@H]1O` (some centres unmarked) [sialic acid], the IC50 in test [4] (Human adenovirus sp., HCE) came out at 1200 µM.
Regarding “Tris ((1-(2-O-(5-N-propanoylamido-3,5-dideoxy-D-glycero-α-D-galacto-2-nonylopyranosylonic acid))-2-oxoethyl-1H-1,2,3-triazol-4-yl)methyl)amine [ME0408]”, the IC50 in test [4] (setting [6]) was found to be 4.5 µM.
In the case of “Tris ((4-(2-O-(5-N-acetamido-3,5-dideoxy-D-glycero-α-D-galacto-2-nonulopyranosylonic acid))-2-oxoethyl-1H-1,2,3-triazol-1-yl)ethyl)amine [ME0461]”, in test [4] (setting [6]), the IC50 came out at 0.376 µM. In addition, the “prevention of infection of HCE cells by HAdV-37 virions compared with ME0322” value in test [5] was “more efficiently than ME0322”.
